Tests used:
[1] = tested on: Tyrosine-protein kinase ABL1 (Homo sapiens), P00519 [H396P]; assay: Inhibition of phosphorylated ABL1 H396P mutant at 10 uM; settings: values are per cent of control
[2] = target: Atypical kinase COQ8B, mitochondrial (Homo sapiens) (UniProt Q96D53); assay: Inhibition of ADCK4 at 10 uM; settings: values are per cent of control
[3] = target: Mitogen-activated protein kinase kinase kinase 5 (Homo sapiens) (UniProt Q99683); assay: Inhibition of ASK1 at 10 uM; settings: values are per cent of control
[4] = target: Mitogen-activated protein kinase 6 (Homo sapiens) (UniProt Q16659); assay: Inhibition of ERK3 at 10 uM; settings: values are per cent of control
[5] = tested on: Mast/stem cell growth factor receptor Kit (Homo sapiens), P10721 [V559D,T670I]; assay: Inhibition of KIT V559D, T670I mutant at 10 uM; settings: values are per cent of control
[6] = target: Serine/threonine-protein kinase STK11 (Homo sapiens) (UniProt Q15831); assay: Inhibition of LKB1 at 10 uM; settings: values are per cent of control
[7] = target: Mitogen-activated protein kinase kinase kinase 4 (Homo sapiens) (UniProt Q9Y6R4); assay: Inhibition of MAP3K4 at 10 uM; settings: values are per cent of control
[8] = target: Dual specificity mitogen-activated protein kinase kinase 3 (Homo sapiens) (UniProt P46734); assay: Inhibition of MEK3 at 10 uM; settings: values are per cent of control
[9] = target: Myosin light chain kinase family member 4 (Homo sapiens) (UniProt Q86YV6); assay: Inhibition of MYLK4 at 10 uM
[10] = target: Myosin-IIIa (Homo sapiens) (UniProt Q8NEV4); assay: Inhibition of MYO3A at 10 uM
[11] = target: Serine/threonine-protein kinase NLK (Homo sapiens) (UniProt Q9UBE8); assay: Inhibition of NLK at 10 uM
[12] = target: Serine/threonine-protein kinase PAK 2 (Homo sapiens) (UniProt Q13177); assay: Inhibition of PAK2 at 10 uM
[13] = target: Serine/threonine-protein kinase 16 (Homo sapiens) (UniProt O75716); assay: Inhibition of STK16 at 10 uM
[14] = target: Vascular endothelial growth factor receptor 2 (Homo sapiens) (UniProt P35968); assay: Inhibition of VEGFR2 at 10 uM; settings: values are per cent of control
[15] = target: Phosphatidylinositol 4,5-bisphosphate 3-kinase catalytic subunit delta isoform (Homo sapiens) (UniProt O00329); assay: Inhibition of PIK3CD at 10 uM
[16] = target: Phosphatidylinositol 4-phosphate 5-kinase type-1 alpha (Homo sapiens) (UniProt Q99755); assay: Inhibition of PIP5K1A at 10 uM
[17] = target: cAMP-dependent protein kinase catalytic subunit beta (Homo sapiens) (UniProt P22694); assay: Inhibition of PKAC-beta at 10 uM; settings: values are per cent of control
[18] = target: Ribosomal protein S6 kinase alpha-3 (Homo sapiens) (UniProt P51812); assay: Inhibition of RSK2 N-terminal domain1 at 10 uM
[19] = target: Ribosomal protein S6 kinase alpha-6 (Homo sapiens) (UniProt Q9UK32); assay: Inhibition of RSK4 N-terminal domain1 at 10 uM
[20] = target: STE20-like serine/threonine-protein kinase (Homo sapiens) (UniProt Q9H2G2); assay: Inhibition of SLK at 10 uM
[21] = target: Serine/threonine-protein kinase 17A (Homo sapiens) (UniProt Q9UEE5); assay: Inhibition of DRAK1 at 10 uM; values are per cent of control
[22] = target: Mitogen-activated protein kinase 13 (Homo sapiens) (UniProt O15264); assay: Inhibition of p38delta at 10 uM; values are per cent of control
[23] = tested on: Proto-oncogene tyrosine-protein kinase receptor Ret (Homo sapiens), P07949 [V804M]; assay: Inhibition of RET V804M mutant at 10 uM; values are per cent of control
[24] = target: Tyrosine-protein kinase JAK2 (Homo sapiens) (UniProt O60674); assay: Inhibition of JAK2 JH1 catalytic domain at 10 uM; values are per cent of control

Serine/threonine-protein kinase PAK 2 (Homo sapiens), sequence (Q13177 whole entry): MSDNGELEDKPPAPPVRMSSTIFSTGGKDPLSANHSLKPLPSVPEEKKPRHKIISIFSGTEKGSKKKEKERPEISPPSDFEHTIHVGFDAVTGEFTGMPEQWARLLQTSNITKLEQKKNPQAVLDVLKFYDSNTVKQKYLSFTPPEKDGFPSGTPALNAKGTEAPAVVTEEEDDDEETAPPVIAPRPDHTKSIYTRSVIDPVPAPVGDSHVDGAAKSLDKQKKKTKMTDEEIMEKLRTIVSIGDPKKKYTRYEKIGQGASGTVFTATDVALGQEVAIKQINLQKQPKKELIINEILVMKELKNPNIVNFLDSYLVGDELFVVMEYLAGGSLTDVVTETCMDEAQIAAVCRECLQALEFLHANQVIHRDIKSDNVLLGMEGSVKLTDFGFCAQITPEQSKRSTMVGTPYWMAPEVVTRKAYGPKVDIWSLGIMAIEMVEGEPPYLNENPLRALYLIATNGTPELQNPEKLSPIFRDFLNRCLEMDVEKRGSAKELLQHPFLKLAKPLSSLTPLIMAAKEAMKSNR
Mitogen-activated protein kinase kinase kinase 4 (Homo sapiens), sequence (Q9Y6R4 whole entry): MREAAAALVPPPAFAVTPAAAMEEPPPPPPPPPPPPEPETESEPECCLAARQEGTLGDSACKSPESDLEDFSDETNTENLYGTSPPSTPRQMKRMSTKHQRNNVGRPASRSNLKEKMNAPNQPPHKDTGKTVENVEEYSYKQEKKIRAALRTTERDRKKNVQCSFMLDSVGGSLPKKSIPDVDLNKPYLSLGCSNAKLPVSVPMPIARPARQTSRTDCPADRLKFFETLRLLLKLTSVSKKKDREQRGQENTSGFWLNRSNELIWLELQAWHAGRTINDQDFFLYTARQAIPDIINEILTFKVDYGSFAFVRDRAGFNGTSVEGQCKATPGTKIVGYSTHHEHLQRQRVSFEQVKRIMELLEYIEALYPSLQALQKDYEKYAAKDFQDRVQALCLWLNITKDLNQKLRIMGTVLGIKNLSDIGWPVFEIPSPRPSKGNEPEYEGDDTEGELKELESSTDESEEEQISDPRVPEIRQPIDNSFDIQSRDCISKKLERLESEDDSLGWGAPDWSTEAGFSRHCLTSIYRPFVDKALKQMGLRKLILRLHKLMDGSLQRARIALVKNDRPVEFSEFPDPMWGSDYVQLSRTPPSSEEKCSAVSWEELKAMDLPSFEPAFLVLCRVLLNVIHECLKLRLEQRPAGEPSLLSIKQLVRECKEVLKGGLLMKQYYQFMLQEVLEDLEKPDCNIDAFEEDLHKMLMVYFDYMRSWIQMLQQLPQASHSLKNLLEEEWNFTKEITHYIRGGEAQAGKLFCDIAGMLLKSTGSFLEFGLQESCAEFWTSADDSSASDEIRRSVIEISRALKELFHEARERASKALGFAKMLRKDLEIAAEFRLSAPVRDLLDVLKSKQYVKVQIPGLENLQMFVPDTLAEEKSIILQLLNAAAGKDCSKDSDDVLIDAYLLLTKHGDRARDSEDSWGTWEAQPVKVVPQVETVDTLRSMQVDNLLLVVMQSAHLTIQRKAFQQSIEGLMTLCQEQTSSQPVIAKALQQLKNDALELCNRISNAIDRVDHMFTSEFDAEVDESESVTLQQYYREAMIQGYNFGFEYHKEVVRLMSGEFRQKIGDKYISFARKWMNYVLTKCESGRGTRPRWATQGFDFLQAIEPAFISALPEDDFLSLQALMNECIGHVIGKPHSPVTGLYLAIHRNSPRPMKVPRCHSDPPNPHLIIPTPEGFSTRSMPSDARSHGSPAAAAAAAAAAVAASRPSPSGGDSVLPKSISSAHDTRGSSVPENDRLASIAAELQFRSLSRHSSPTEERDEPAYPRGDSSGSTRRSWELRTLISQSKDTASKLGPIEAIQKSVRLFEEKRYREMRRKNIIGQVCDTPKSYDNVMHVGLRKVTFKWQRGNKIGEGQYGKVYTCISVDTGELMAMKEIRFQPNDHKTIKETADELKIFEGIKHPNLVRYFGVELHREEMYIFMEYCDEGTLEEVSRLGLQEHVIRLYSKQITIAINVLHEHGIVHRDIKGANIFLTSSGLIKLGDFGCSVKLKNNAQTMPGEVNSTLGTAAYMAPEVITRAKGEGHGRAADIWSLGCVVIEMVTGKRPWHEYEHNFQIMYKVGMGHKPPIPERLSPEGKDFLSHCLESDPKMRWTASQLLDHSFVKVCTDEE
Ribosomal protein S6 kinase alpha-6 (Homo sapiens), sequence (Q9UK32 whole entry, the tested form may be a part): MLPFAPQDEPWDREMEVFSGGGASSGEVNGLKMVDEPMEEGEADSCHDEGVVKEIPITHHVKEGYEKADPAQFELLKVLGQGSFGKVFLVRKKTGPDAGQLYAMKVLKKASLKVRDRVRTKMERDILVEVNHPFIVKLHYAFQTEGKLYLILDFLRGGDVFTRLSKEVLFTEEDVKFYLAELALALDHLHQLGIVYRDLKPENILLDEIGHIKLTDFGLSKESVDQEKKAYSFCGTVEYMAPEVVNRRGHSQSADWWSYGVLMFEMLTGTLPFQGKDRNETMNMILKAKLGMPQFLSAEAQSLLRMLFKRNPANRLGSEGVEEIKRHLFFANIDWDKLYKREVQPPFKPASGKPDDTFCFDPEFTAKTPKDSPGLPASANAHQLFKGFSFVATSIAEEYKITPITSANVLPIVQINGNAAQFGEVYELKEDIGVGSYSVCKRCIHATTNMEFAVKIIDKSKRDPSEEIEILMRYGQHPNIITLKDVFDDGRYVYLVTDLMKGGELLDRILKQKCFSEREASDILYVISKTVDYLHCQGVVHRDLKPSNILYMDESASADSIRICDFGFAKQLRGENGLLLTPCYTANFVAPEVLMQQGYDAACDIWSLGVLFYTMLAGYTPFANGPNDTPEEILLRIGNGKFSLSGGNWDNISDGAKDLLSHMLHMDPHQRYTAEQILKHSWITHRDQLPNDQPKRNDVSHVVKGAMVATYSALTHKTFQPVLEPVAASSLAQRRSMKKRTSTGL
Serine/threonine-protein kinase NLK (Homo sapiens), sequence (Q9UBE8 whole entry): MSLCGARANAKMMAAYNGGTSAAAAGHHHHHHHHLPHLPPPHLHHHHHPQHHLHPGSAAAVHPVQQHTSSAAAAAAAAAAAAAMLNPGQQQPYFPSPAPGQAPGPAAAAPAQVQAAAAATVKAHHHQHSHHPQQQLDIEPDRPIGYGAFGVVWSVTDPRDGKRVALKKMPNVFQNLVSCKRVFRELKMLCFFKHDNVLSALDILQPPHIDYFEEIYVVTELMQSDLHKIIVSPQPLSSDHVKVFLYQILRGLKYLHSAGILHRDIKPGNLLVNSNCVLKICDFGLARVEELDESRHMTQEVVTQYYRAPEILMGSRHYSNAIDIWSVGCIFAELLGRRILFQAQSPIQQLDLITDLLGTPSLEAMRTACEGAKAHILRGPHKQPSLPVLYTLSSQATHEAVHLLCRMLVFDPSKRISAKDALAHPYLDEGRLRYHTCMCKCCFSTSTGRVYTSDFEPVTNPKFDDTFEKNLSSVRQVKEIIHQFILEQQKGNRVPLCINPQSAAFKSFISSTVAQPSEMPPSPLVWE
Atypical kinase COQ8B, mitochondrial (Homo sapiens), sequence (Q96D53 whole entry): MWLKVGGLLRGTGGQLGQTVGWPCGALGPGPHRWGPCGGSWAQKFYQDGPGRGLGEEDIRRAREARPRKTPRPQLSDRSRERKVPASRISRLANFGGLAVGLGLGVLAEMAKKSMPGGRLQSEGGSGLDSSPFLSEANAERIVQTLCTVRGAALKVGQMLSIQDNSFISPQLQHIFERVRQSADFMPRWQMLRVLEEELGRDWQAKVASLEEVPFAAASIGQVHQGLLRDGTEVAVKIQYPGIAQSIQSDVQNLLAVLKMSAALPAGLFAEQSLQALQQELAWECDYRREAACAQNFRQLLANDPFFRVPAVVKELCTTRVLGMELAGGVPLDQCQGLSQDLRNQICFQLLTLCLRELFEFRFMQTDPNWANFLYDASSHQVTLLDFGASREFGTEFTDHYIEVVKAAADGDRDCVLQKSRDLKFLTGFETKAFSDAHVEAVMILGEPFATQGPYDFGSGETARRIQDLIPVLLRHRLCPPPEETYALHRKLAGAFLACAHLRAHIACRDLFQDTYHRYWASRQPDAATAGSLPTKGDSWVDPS
Ribosomal protein S6 kinase alpha-3 (Homo sapiens), sequence (P51812 whole entry, the tested form may be a part): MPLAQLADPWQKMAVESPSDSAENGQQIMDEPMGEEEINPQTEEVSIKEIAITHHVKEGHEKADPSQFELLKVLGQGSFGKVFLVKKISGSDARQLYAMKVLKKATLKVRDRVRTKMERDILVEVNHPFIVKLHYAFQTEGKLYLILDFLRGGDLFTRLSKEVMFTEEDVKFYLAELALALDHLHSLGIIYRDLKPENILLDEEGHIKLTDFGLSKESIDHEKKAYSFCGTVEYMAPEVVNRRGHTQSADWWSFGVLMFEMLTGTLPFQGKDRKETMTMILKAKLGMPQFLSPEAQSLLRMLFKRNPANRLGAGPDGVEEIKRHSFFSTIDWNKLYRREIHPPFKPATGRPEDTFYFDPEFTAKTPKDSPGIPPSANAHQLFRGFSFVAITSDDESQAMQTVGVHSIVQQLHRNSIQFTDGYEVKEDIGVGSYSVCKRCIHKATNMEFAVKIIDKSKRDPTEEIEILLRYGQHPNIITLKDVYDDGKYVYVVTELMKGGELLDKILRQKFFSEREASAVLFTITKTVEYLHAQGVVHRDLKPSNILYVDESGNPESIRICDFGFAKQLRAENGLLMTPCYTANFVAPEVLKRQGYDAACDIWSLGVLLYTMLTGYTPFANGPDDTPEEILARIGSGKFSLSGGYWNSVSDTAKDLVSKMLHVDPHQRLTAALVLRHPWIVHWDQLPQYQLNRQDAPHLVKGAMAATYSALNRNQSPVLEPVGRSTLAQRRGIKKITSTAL
Dual specificity mitogen-activated protein kinase kinase 3 (Homo sapiens), sequence (P46734 whole entry): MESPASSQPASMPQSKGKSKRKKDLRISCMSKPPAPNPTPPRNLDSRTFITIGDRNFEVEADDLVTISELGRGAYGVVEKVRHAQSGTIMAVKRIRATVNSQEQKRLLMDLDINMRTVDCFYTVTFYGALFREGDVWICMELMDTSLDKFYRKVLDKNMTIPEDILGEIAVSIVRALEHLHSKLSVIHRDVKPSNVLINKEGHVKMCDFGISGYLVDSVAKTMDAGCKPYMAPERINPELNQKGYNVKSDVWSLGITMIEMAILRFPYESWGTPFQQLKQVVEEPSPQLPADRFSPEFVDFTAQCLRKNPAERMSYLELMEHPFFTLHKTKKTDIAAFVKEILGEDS

CCN1CCN(Cc2ccc(NC(=O)c3ccc(C)c(C#Cc4cnc5[nH]ccc5c4)c3)cc2C(F)(F)F)CC1
residual binding, % of control [1]: 0.05% | residual binding, % of control [2]: 82% | residual binding, % of control [3]: 24% | residual binding, % of control [4]: 100% | residual binding, % of control [5]: 0% | residual binding, % of control [6]: 60% | residual binding, % of control [7]: 62% | residual binding, % of control [8]: 67% | inhibition [9]: 40% | inhibition [10]: 15% | inhibition [11]: 13% | inhibition [12]: 76% | inhibition [13]: 47% | residual binding, % of control [14]: 0.35% | inhibition [15]: 76% | inhibition [16]: 10% | residual binding, % of control [17]: 11% | inhibition [18]: 2.8% | inhibition [19]: 28% | inhibition [20]: 0.3% | % of control [21]: 24% | % of control [22]: 2.6% | level, % of control [23]: 0% | level, % of control [24]: 3%

CCN1CCN(Cc2ccc(NC(=O)c3ccc(C)c(C#Cc4cccnc4)c3)cc2C(F)(F)F)CC1
residual binding, % of control [1]: 0% | residual binding, % of control [2]: 85% | residual binding, % of control [3]: 100% | residual binding, % of control [4]: 100% | residual binding, % of control [5]: 0% | residual binding, % of control [6]: 96% | residual binding, % of control [7]: 100% | residual binding, % of control [8]: 86% | inhibition [9]: 68% | inhibition [10]: 3.2% | inhibition [11]: 8.2% | inhibition [12]: 84% | inhibition [13]: 100% | residual binding, % of control [14]: 0.25% | inhibition [15]: 76% | inhibition [16]: 79% | residual binding, % of control [17]: 4.1% | inhibition [18]: 16% | inhibition [19]: 47% | inhibition [20]: 0.1% | % of control [21]: 87% | % of control [22]: 2.5% | level, % of control [23]: 0% | level, % of control [24]: 3%

— ChEMBL document CHEMBL1177794, “Broad spectrum alkynyl inhibitors of T315I Bcr-Abl” (Bioorg Med Chem Lett, 2010)
